Where two headings read alike, the source gives them in different places.
Legend:
Type in all cases: cell-based, Human
H1581 (FGFR1 amp) = assay: In vitro growth inhibition of H1581 tumor cells (MTT/CCK8); conditions: Homo sapiens, NCI-H1581; in vitro growth inhibition (or induction of apoptosis), cells cultured 3 to 5 days, MTT (CCK8); read-out: IC50 H1581 (FGFR1 amp)
From the text: (§1) Tumor cell lines are an effective model for studying in vitro tumor growth inhibition. In the present invention, a representative tumor cell line was selected to determine the cell growth inhibition activity of the present compound. All cell lines used were from ATCC, DSMZ, and cell banks of the Chinese Academy of Sciences. Cell culture conditions and methods were in accordance with the requirements of each cell line. Cells were subcultured in vitro for no more than 3 generations each time, and as required, single-clone purification and identification of cell lines could be carried out.
(§2) The cell culture media used were RPMI1640 (Gibco), DMEM (Gibco), MEM (Gibco), L15 (Gibco), IMDM (Gibco), McCOY'S5A, and William's (Gibco). 5-20% fetal bovine serum (Gibco), 1% double antibiotic, 2 mM glutamine, or 1 mM sodium pyruvate were added. The names, species, major gene characteristics, culture media and cell sources of the cell lines used are shown in table 1, wherein “amp” refers to gene amplification. “+++” refers to gene overexpression. The main genetic characteristics of cells were obtained from the COSMIC Cell Lines Project and related research papers, respectively.
(§3) Adherent cells were digested with 0.25% trypsin-EDTA (Gibco). Suspension culture cells were collected by centrifugation (1700 rpm, 3 minutes). The supernatant was discarded and the cells were counted. According to each cell growth cycle, different concentrations of cells were prepared (5˜10×10^4 cells per ml), and inoculated to 96-well plates (Corning), with 100 μl per well, and incubated overnight at 37° C., 5% CO2. The next day, the test compound was added to the cultured cells (2 wells in parallel). The final concentration of the solvent was less than 1/1,000. The cells were further cultured for 3 to 5 days and assayed by MTT.
(§4) The compound was stored at a concentration of 10 mM at −20° C. and diluted to 2- or 10-fold series prior to use. BGJ398 and AC220 were synthesized according to the methods of WO2006420A1 and US2007232604A1, respectively.
(§5) The adherent cells were taken out from the cell culture medium, and immediately added to a freshly prepared complete medium containing 10% CCK8 (5% FBS), 100 ul per hole. The suspended cells were directly added to a CCK8 reagent until reaching a final concentration of 10% and cultured for 1 to 4 hours.
(§6) T=optical density of drug-treated cell wells−optical density of blank control wells; T0=optical density of cell wells before drug treatment−optical density of blank control wells; C=optical density of solvent control wells−optical density of blank control wells. […] The experiments were repeated 1 to 3 times and a statistical analysis of data was conducted.

KATO III (FGFR2 amp) = assay: In vitro growth inhibition of KATO III tumor cells (MTT/CCK8); conditions: Homo sapiens, KATO III; in vitro growth inhibition (or induction of apoptosis), cells cultured 3 to 5 days, MTT (CCK8); read-out: IC50 KATO III (FGFR2 amp)
From the text: as §1, §2, §3, §4, §5, §6

Hep3B2 (FGFR3/4+++) = assay: In vitro growth inhibition of Hep3B2 tumor cells (MTT/CCK8); conditions: Homo sapiens, Hep3B; in vitro growth inhibition (or induction of apoptosis), cells cultured 3 to 5 days, MTT (CCK8); read-out: IC50 Hep3B2 (FGFR3/4+++)
From the text: as §1, §2, §3, §4, §5, §6

MOLM-13 (FLT3-ITD) = assay: In vitro growth inhibition of MOLM-13 tumor cells (MTT/CCK8); conditions: Homo sapiens
From the text: as §1, §2, §3, §4, §5, §6

KCL-22 (BCR-ABL) = assay: In vitro growth inhibition of KCL-22 tumor cells (MTT/CCK8); conditions: Homo sapiens, KCL-22; in vitro growth inhibition (or induction of apoptosis), cells cultured 3 to 5 days, MTT (CCK8); read-out: IC50 KCL-22 (BCR-ABL)
From the text: as §1, §2, §3, §4, §5, §6

Kasumi-1 (KIT N822K) = assay: In vitro growth inhibition of Kasumi-1 tumor cells (MTT/CCK8); conditions: Homo sapiens, Kasumi 1; in vitro growth inhibition (or induction of apoptosis), cells cultured 3 to 5 days, MTT (CCK8); read-out: IC50 Kasumi-1 (KIT N822K)
From the text: as §1, §2, §3, §4, §5, §6

H1703 (PDGFRa amp) = assay: In vitro growth inhibition of H1703 tumor cells (MTT/CCK8); conditions: Homo sapiens, NCI-H1703; in vitro growth inhibition (or induction of apoptosis), cells cultured 3 to 5 days, MTT (CCK8); read-out: IC50 H1703 (PDGFRa amp)
From the text: as §1, §2, §3, §4, §5, §6

Karpas 299 (NPM-ALK) = assay: In vitro growth inhibition of Karpas 299 tumor cells (MTT/CCK8); conditions: Homo sapiens
From the text: as §1, §2, §3, §4, §5, §6

[1] = MOLM-13, in vitro growth inhibition (or induction of apoptosis), cells cultured 3 to 5 days, MTT (CCK8), read-out: IC50 MOLM-13 (FLT3-ITD)
[2] = KARPAS-299, in vitro growth inhibition (or induction of apoptosis), cells cultured 3 to 5 days, MTT (CCK8), read-out: IC50 Karpas 299 (NPM-ALK)

Row | Compound | IC50 (H1581 (FGFR1 amp)) [nM] | IC50 (KATO III (FGFR2 amp)) [nM] | IC50 (Hep3B2 (FGFR3/4+++)) [nM] | IC50 (MOLM-13 (FLT3-ITD); [1]) [nM] | IC50 (KCL-22 (BCR-ABL)) [nM] | IC50 (Kasumi-1 (KIT N822K)) [nM] | IC50 (H1703 (PDGFRa amp)) [nM] | IC50 (Karpas 299 (NPM-ALK); [2]) [nM] | IC50 (MOLM-13 (FLT3-ITD); MOLM-13, read-out: IC50 MOLM-13 (FLT3-ITD)) [nM] | IC50 (Karpas 299 (NPM-ALK); KARPAS-299, read-out: IC50 Karpas 299 (NPM-ALK)) [nM]
1 | COc1cc2nccc(Oc3ccc(NC(=O)Nc4cc(C(C)(C)C)n[nH]4)c(C)c3)c2cc1C(N)=O [Compound 34, 4-{4-[3-(5-tert-butyl-2H-pyrazol-3-yl)-ureido]-3-methyl-phenoxy}-7-methoxyquinolin-6-carboxamide] | 57.5 | 1.62 | 96.4 | 14.6 | 98.2 | 135 | 88.1 | 641 |  | 
2 | COc1cc2nccc(Oc3ccc(NC(=O)Nc4cc(C(C)(C)C)on4)c(Cl)c3)c2cc1[N+](=O)[O-] [Compound 18, 1-(5-tert-butyl-isoxazol-3-yl)-3-[2-chloro-4-(7-methoxy-6-nitro-quinolin-4-yloxy)-phenyl]-urea] | 224 | 6.73 | 638 | 410 | 83.6 | 59.6 | 68 | > 1000 |  | 
3 | CC(C)(C)c1cc(NC(=O)Nc2ccc(Oc3ccnc4cc(OCCCN5CCN(C(C)(C)C)CC5)c(C(N)=O)cc34)cc2Cl)[nH]n1 [Compound 87, 7-[3-(4-tert-butyl-piperazin-1-yl)-propoxy]-4-{4-[3-(5-tert-butyl-2H-pyrazol-3-yl)-ureido]-3-chlorophenoxy}-quinolin-6-carboxamide] |  | 1.02 | 57.2 | 3.65 | 55.1 | 4.19 | 12.5 | 144 |  | 
4 | CC(=O)N1CCN(CCCOc2cc3nccc(Oc4ccc(NC(=O)Nc5cc(C(C)(C)C)n[nH]5)c(Cl)c4)c3cc2C(N)=O)CC1 [Compound 91, 7-[3-(4-acetyl-piperazin-1-yl)-propoxy]-4-{4-[3-(5-tert-butyl-2H-pyrazol-3-yl)-ureido]-3-chloro-phenoxy}-quinolin-6-carboxamide] |  | 1.26 | 43.1 | 6.41 | 184 | 16.4 |  | 216 |  | 
5 | CC(C)CN1CCN(CCCOc2cc3nccc(Oc4ccc(NC(=O)Nc5cc(C(C)(C)C)n[nH]5)c(Cl)c4)c3cc2C(N)=O)CC1 [Compound 89, 4-{4-[3-(5-tert-butyl-2H-pyrazol-3-yl)-ureido]-3-chloro-phenoxy}-7-[3-(4-isobutyl-piperazin-1-yl)-propoxy]-quinolin-6-carboxamide] |  | 1.12 | 19.4 | 6.43 | 45 | 4.48 | 13.1 | 146 |  | 
6 | CN1CCCN(CCCOc2cc3nccc(Oc4ccc(NC(=O)Nc5cc(C(C)(C)C)n[nH]5)c(Cl)c4)c3cc2C(N)=O)CC1 [Compound 88, 4-{4-[3-(5-tert-butyl-2H-pyrazol-3-yl)-ureido]-3-chloro-phenoxy}-7-[3-(4-methyl-[1,4]-1-yl)-propoxy]-quinolin-6-carboxamide] |  | 5.67 | 175 | 5.49 | 282 | 15.6 | 55.6 | 153 |  | 
7 | Cc1ccc(C(=O)Nc2ccc(CN3CCN(C)CC3)c(C(F)(F)F)c2)cc1C#Cc1cnc2cccnn12 [Ponatinib, reference compound] |  |  |  |  |  |  |  |  | < 1 | 798
8 | CC(C)(C)c1cc(NC(=O)Nc2ccc(-c3cn4c(n3)sc3cc(OCCC5CCOCC5)ccc34)cc2)no1 [AC220, reference compound] | > 1000 | > 1000 |  | 0.69 | > 1000 | > 1000 | > 1000 | > 1000 |  | 
9 | COc1cc2nccc(Oc3ccc(NC(=O)Nc4cc(C(C)(C)C)n[nH]4)cn3)c2cc1C(N)=O [Compound 108, 4-{5-[3-(5-tert-butyl-2H-pyrazol-3-yl)-ureido]-pyridin-2-yloxy}-7-methoxy-quinolin-6-carboxamide] | 146 | 31.3 |  | 3.81 | > 1000 | > 1000 | 666 | > 1000 |  | 
10 | COCCOc1cc2nccc(Oc3ccc(NC(=O)Nc4cc(C(C)(C)C)n[nH]4)c(Cl)c3)c2cc1C(N)=O [Compound 42, 4-{4-[3-(5-tert-butyl-2H-pyrazol-3-yl)-ureido]-3-chloro-phenoxy}-7-(2-methoxy-ethoxy)-quinolin-6-carboxamide] | 9.19 | 0.98 |  |  | 46.5 | 191 | 11.9 | 93 |  | 
11 | COc1cc2nccc(Oc3ccc(NC(=O)Nc4cc(C(C)(C)C)nn4C)c(Cl)c3C)c2cc1C(N)=O [Compound 111, 4-{4-[3-(5-tert-butyl-2-methyl-2H-pyrazol-3-yl)-ureido]-3-chloro-2-methyl-phenoxy}-7-methoxy-carboxamide] | 2.98 | 0.1 | 8.41 |  | 1.07 | 0.375 | 4.75 | 55.7 |  | 
12 | CC(C)(C)c1cc(NC(=O)Nc2ccc(Oc3ccnc4cc(OCCCN5CCN(c6ccccc6)CC5)c(C(N)=O)cc34)cc2Cl)[nH]n1 [Compound 86, 4-{4-[3-(5-tert-butyl-2H-pyrazol-3-yl)-ureido]-3-chloro-phenoxy}-7-[3-(4-phenyl-piperazin-1-yl)-propoxy]-quinolin-6-carboxamide] | 326 | 68.3 | 85.1 |  |  | 76.3 | 370 | 600 |  | 
13 | CC(C)(C)c1cc(NC(=O)Nc2ccc(Oc3ccnc4cc(OCCCN5CCN(CC6CCCCC6)CC5)c(C(N)=O)cc34)cc2Cl)[nH]n1 [Compound 90] |  | 2.78 | 101 | 7.54 | 175 | 9.47 |  | 256 |  | 
14 | COCCOc1cc2nccc(Oc3ccc(NC(=O)Nc4cc(C(C)(C)C)n[nH]4)c(F)c3)c2cc1NC(C)=O [Compound 128, N-[4-{4-[3-(5-tert-butyl-2H-pyrazol-3-yl)-ureido]-3-fluoro-phenoxy}-7-(2-methoxy-ethoxy)-quinolin-6-yl]-acetamide] | 2.01 | 0.1 |  | 3.91 |  |  |  |  |  | 
15 | COc1cc2nccc(Oc3ccc(NC(=O)Nc4cc(C(C)(C)C)n[nH]4)c(Cl)c3C)c2cc1C(N)=O [Compound 112, 4-{4-[3-(5-tert-butyl-2H-pyrazol-3-yl)-ureido]-3-chloro-2-methyl-phenoxy}-7-methoxy-quinolin-6-carboxamide] | 3.02 | 0.23 | 15.8 |  | 2.69 | 0.406 | 17.3 | 100 |  | 
